Legend:
factor Xa [1] = test: Anti-coagulation factor Xa activity in vitro (chromogenic substrate assay); type: biochemical, rabbit
Method: A chromogenic substrate assay was adopted, and plasma anti-Xa activity was determined on a microplate reader according to a kit specification and reference documents.

[2] = tested on: coagulation function (aPTT); test: aPTT of coagulation function, rabbit wound-limb deep venous thrombosis forming model; type: in vivo; details: for aPPT: 5 mg/kg i.g., x ± SD
Method: (§1) Eight were taken as control group and the rest were treated by a striking device. Striking area was a round surface with the diameter of 1.5 cm, the wounding energy was calculated according to Ep=mgh, and the energy of each striking of the iron rod is 7.5 J.
(§2) Specifically: the rabbit was anesthetized by intravenous injection of 3% pentobarbital sodium at ear edge with the dose of 1 ml/kg. The rabbit was kept laying down at right side prostrate position and the left thigh was set on the striking platform. Found the trochanter of the left femur and set the striking head attached to area from the trochanter to the 1.5 cm below. The self-made striking device was used for striking the outer side of the thigh near-end, and the plaster was used for fixing the left limb on the hip/knee-bending area. When the plaster bandage was applied and the right hip was examined to move freely, the rabbit was kept to lay down until solidification. After the model establishment, the animal was allowed to drink water normally and was fed with granular food. No anticoagulant or antibiotic was used.
(§3) Animals were grouped after modeling. The drug was fed according to table 4 via oral gavage, once a day for 7 days continuously.
(§4) At 0.5, 1.0, 2.0, 3.0 and 4.0 h after the first administration, blood was taken from ear central artery. Plasma was separated and aPPT, PT and the anti-factor Xa activity were determined on an automatic coagulation detector.

factor Xa [3] = test: Plasma anti-factor Xa activity, rabbit wound-limb deep venous thrombosis forming model; type: in vivo
Method: as §1, §2, §3, §4

[4] = tested on: PAF (Platelet activating factor); test: Plasma PAF content by ELISA, rabbit wound-limb deep venous thrombosis forming model; type: in vivo; details: for PAF content (x ± SD): rabbit wound-limb deep venous thrombosis model, *p<0.05, **p<0.01, ***p<0.001 vs model group
Method: as §2, with “Eight were taken as control group and the rest were treated by a striking device. […] Specifically:” for “Specifically:”, “Found the trochanter of the left femur and set the striking head attached to area from the trochanter to the 1.5 cm below.” left out, “used. Animals were grouped after modeling. The drug was fed according to table 4 via oral gavage, once a day for 7 days continuously. At 0.5, 1.0, 2.0, 3.0 and 4.0 h after the first administration, blood was taken from ear central artery. Plasma was separated and the content of PAF was determined by ELISA.” for “used.”

[5] = tested on: coagulation function (PT); test: PT of coagulation function, rabbit wound-limb deep venous thrombosis forming model; type: in vivo; details: 5 mg/kg i.g., x ± SD
Method: as §1, §2, §3, §4

[6] = tested on: venous thromboembolism (VTE); details: cited from earlier work
[7] = in vivo; cited from earlier work
[8] = plasma, 5 mg/kg i.g., 0.5 h after administration, x ± SD
[9] = plasma, 5 mg/kg i.g., 1 h after administration, x ± SD
[10] = plasma, 5 mg/kg i.g., 2 h after administration, x ± SD
[11] = plasma, 5 mg/kg i.g., 3 h after administration, x ± SD
[12] = plasma, 5 mg/kg i.g., 4 h after administration, x ± SD

Compound	anti-factor Xa activity (factor Xa [1]) [IU/ml]	aPPT ([2]; 0.5 h after administration) [s]	aPPT ([2]; 1 h after administration) [s]	aPPT ([2]; 2 h after administration) [s]	aPPT ([2]; 3 h after administration) [s]	aPPT ([2]; 4 h after administration) [s]	aPTT compared with model group ([2]; 1 h after administration)	anti-factor Xa activity (factor Xa [3]; [8]) [IU/ml]	anti-factor Xa activity (factor Xa [3]; [9]) [IU/ml]	anti-factor Xa activity (factor Xa [3]; [10]) [IU/ml]	anti-factor Xa activity (factor Xa [3]; [11]) [IU/ml]	anti-factor Xa activity (factor Xa [3]; [12]) [IU/ml]	PAF content (x ± SD) ([4]; 1 h after administration) [ng/L]	PAF content (x ± SD) ([4]; 3 h after administration) [ng/L]	PAF content compared to model group ([4]; 4 h after administration)	PT ([5]; 0.5 h after administration) [s]	PT ([5]; 1 h after administration) [s]	PT ([5]; 2 h after administration) [s]	PT ([5]; 3 h after administration) [s]	PT ([5]; 4 h after administration) [s]	other results
COc1ccc(-n2nc(C(N)=O)c3c2C(=O)N(c2ccc(N4CCCCC4=O)cc2)CC3)cc1 [Apixaban]	1.07	19.05 ± 6.17	24.26 ± 7.89	23.94 ± 5.49	31.71 ± 8.53	29.21 ± 11.35	no obvious extension	0.16 ± 0.10	0.26 ± 0.04	0.25 ± 0.10	1.22 ± 0.22	1.12 ± 0.15	1543.57 ± 239.95	1865.71 ± 371.23	extremely significant decrease	–	–	–	–	–	anti-factor Xa activity (factor Xa [3]; 0.5 h-4 h after administration): extremely significant difference; PAF content (x ± SD) ([4]; 2 h after administration): 1117.86 ± 231.52 ng/L
CN1CCc2nc(C(=O)N[C@@H]3C[C@@H](C(=O)N(C)C)CC[C@@H]3NC(=O)C(=O)Nc3ccc(Cl)cn3)sc2C1 [Edoxaban]	–	26.77 ± 7.65	25.01 ± 9.52	33.63 ± 5.45	36.47 ± 9.12	27.20 ± 6.31	no obvious extension	–	–	–	–	–	1236.72 ± 301.62	1623.43 ± 256.35	–	6.73 ± 0.15	6.14 ± 0.26	6.28 ± 0.42	6.45 ± 0.65	6.42 ± 0.34	–
CC1C(=O)OC2C(O)C34C5CC(C(C)(C)C)C36C(OC(=O)C6O)OC4(C(=O)O5)C12O (centres unmarked) [Ginkgolide B]	0.57	25.89 ± 8.15	30.65 ± 6.79	25.83 ± 5.96	34.30 ± 6.56	31.92 ± 7.77	obviously extended	0.08 ± 0.07	0.10 ± 0.10	0.35 ± 0.22	0.74 ± 0.15	0.65 ± 0.12	1255.71 ± 300.73	1656.43 ± 259.36	–	6.76 ± 0.32	6.79 ± 0.27	6.75 ± 0.36	6.72 ± 0.24	6.68 ± 0.23	anti-factor Xa activity (factor Xa [3]; 0.5 h-4 h after administration): increased with time; PAF content compared to model group ([4]; 2 h after administration): decreased significantly
CN(C)Cc1nccn1-c1ccc(NC(=O)c2cc(C(F)(F)F)nn2-c2ccc3onc(N)c3c2)c(F)c1 [Razaxaban]	0.86	20.13 ± 6.74	26.23 ± 8.43	22.33 ± 4.46	35.75 ± 8.68	29.65 ± 9.72	no obvious extension	0.20 ± 0.14	0.18 ± 0.05	0.23 ± 0.08	1.31 ± 0.30	1.32 ± 0.09	1501.29 ± 131.10	1641.26 ± 242.32	decreased significantly	6.71 ± 0.25	7.41 ± 0.51	6.47 ± 0.25	6.47 ± 0.41	6.70 ± 0.25	PAF content (x ± SD) ([4]; 0.5 h after administration): 889.42 ± 326.32 ng/L; VTE occurrence rate compared with enoxaparin ([6]; patients taking Razaxaban 25 mg, total knee replacement): significantly lower; occurrence rate of large bleeding compared with enoxaparin ([6]; patients taking Razaxaban 25 mg): similar; large bleeding compared with Enoxaparin ([6]; patients taking Razaxaban 50-100 mg): more likely to have large bleeding
O=C(NC[C@H]1CN(c2ccc(N3CCOCC3=O)cc2)C(=O)O1)c1ccc(Cl)s1 [Rivaroxaban]	0.54	27.89 ± 7.97	32.01 ± 9.31	34.63 ± 5.57	35.92 ± 10.85	29.20 ± 6.32	obviously extended	0.37 ± 0.09	0.31 ± 0.13	0.18 ± 0.05	1.32 ± 0.16	1.38 ± 0.18	1484.29 ± 129.00	1671.43 ± 236.95	extremely significant decrease	6.76 ± 0.30	7.20 ± 0.96	6.90 ± 0.34	6.81 ± 0.22	6.70 ± 0.33	anti-factor Xa activity (factor Xa [3]; 0.5 h-4 h after administration): extremely significant difference; PAF content (x ± SD) ([4]; 0.5 h after administration): 886.43 ± 314.24 ng/L
Otamixaban	1.03	21.67 ± 9.42	25.71 ± 7.68	25.61 ± 6.75	34.62 ± 7.59	30.16 ± 9.37	no obvious extension	0.19 ± 0.04	0.25 ± 0.10	0.26 ± 0.14	1.25 ± 0.12	1.24 ± 0.06	1526.56 ± 212.31	1745.52 ± 356.26	decreased significantly	6.58 ± 0.45	6.74 ± 0.26	6.52 ± 0.43	6.62 ± 0.42	7.82 ± 0.31	PAF content (x ± SD) ([4]; 2 h after administration): 1123.45 ± 224.51 ng/L; excretion through kidney [7]: less than 25%

Reference: US10058533B2, “Pharmaceutical composition containing Ginkgolide B and Xa factor inhibitor, preparation method thereof and use thereof” (CHENGDU BAIYU PHARMACEUTICAL CO., LTD, priority 2014, dated 2018)
